Data published in patent US8475940B2, “Anthracene derivative and light-emitting device” (Toppan Printing Co., Ltd., priority 2009, dated 2013).
Where “and” joins values, the source holds several entries; their conditions need not be identical. Equal values may be shown once.

How the values were obtained:
[1] = Optical deterioration of fluorescent intensity of film under 340 nm irradiation; format: physicochemical; settings: irradiated with 340 nm light for 1,000 sec, slit 1.5 nm
Method: A film of the ink was formed on an ITO transparent electroconductive glass by spin coating and the fluorescent spectrum intensity was measured by a fluorophotometer (trade name: RF-5300PC, manufactured by Shimadzu Corporation) at an excitation spectrum of 340 nm.
Using a fluorophotometer (trade name: RF-5300PC, manufactured by Shimadzu Corporation) wherein the width of the slit for excitation light was changed to 1.5 nm, this light emitting film was successively irradiated with light having a wavelength of 340 nm for 1,000 sec, with the result that a single film of the isomer component 1 of the compound 2 was decreased in fluorescent intensity to 57% of the initial intensity and the single film of BTrSBF was decreased to 64% of the initial intensity whereas the film obtained by doping BTrSBF with 5 wt % of the compound 2 kept 74% of the initial intensity, showing that this film had the effect of suppressing the optical deterioration of fluorescent intensity.

[2] = Thermal analysis by DSC (glass transition temperature); format: physicochemical; settings: for thermal stability: second heatup after rapid cooling, no exothermic or endothermic peak except Tg
Method: The glass transition temperature (Tg), crystallization temperature (Tc), and melting point (Tm) of the compound 1 were measured by EXSTAR6000 Series DSC6200 manufactured by Seiko Instruments Inc., at a temperature rise rate of 20° C./min. […] Tm was 493° C. to 513° C. (peak 504° C.).
The glass transition temperature (Tg), crystallization temperature (Tc), and melting point (Tm) of the isomer component 1 of the compound 2 were measured by an EXSTAR6000Series DSC6200 manufactured by Seiko Instruments Inc., at a temperature rise rate of 20° C./min.
The Tg, Tc, and Tm of the compound 33 measured by DSC were 240° C., 323° C., and 403° C. respectively.

[3] = Solubility in toluene / organic solvents at ambient temperature; format: physicochemical; settings: for solubility (concentration dissolved in toluene): ambient temperature; for solubility in organic solvents: aromatic solvents such as xylene, anisole, tetralin
Method: The compound 1 was dissolved with a concentration of 1.3 mg in 1 ml of toluene at ambient temperature and used as a light-emitting dopant for a blue light-emitting layer ink, which could be applied to form a film.
The isomer component 1 of compound 2 was dissolved in a concentration of 34 mg in 1 ml of toluene at ambient temperature and used for ink that formed each layer of an organic EL as a carrier transport layer, each color light-emitting host and light-emitting dopant, thereby enabling the formation of a coating film.
The compound 3 was dissolved in a concentration of 150 mg in 1 ml of toluene at ambient temperature and used for ink that formed each layer of an organic EL as a carrier transport layer, each color light-emitting host, or blue light-emitting dopant, thereby enabling the formation of a coating film.
Further, the compound 31 can be dissolved in various mixture solvents to be matched with the viscosities of various printing systems.
The compound 32 was soluble in a concentration of 6 mg in 1 ml of toluene at ambient temperature. When the compound 32 was gradually added to dissolve while heating on a hot plate, 34 mg of the compound 32 was dissolved when the temperature was returned to ambient temperature. The compound 32 can be used as an electron transportable carrier transport material and may be dissolved in an organic solvent such as toluene, xylene, anisole, and tetralin to add the obtained solution to ink for forming each layer of an organic EL, thereby forming a coating film.

[4] = Energy level: ionization potential of spin coat film by surface analyzer AC-1, electron affinity by subtracting absorption-edge energy; format: physicochemical; settings: for electron affinity: ionization potential minus absorption-edge energy; for ionization potential: spin coat film on ITO glass, surface analyzer AC-1; for Eg: energy difference between ionization potential and electron affinity
Method: (§1) A solution prepared by dissolving 1.3 mg of the compound 1 in 1 ml of toluene was applied to an ITO transparent electroconductive glass by spin coating to measure the ionization potential by a surface analyzer AC-1 manufactured by Riken Keiki Co., Ltd., to find that the ionization potential was 5.9 eV.
A solution prepared by dissolving 10 mg of the isomer component 1 of the compound 2 in 1 ml of toluene was applied to an ITO transparent electroconductive glass by spin coating to measure the ionization potential by a surface analyzer AC-1 manufactured by Riken Keiki Co., Ltd., to find that the ionization potential was 5.9 eV.
as §1, with “10” for “1.3”, “eV. The electron affinity obtained by subtracting the absorption-edge energy from the ionization potential was 3.0 eV.” for “eV.”
as §1, with “dissolving 10” for “dissolving 1.3”, “compound 31” for “compound 1”, “was 6.2” for “was 5.9”, “eV. The electron affinity obtained by subtracting absorption-edge energy from the ionization potential was 3.0 eV.” for “eV.”
as §1, with “dissolving 10” for “dissolving 1.3”, “compound 32” for “compound 1”, “was 6.2” for “was 5.9”, “eV. The electron affinity obtained by subtracting absorption-edge energy from the ionization potential was 3.0 eV.” for “eV.”

[5] = background section, DSC; cited from earlier work
[6] = Fluorescent spectrum of spin coat film (fluorophotometer RF-5300PC); format: physicochemical; settings: for fluorescent peak wavelength: single-compound spin coat film on ITO transparent electroconductive glass, excitation 330-340 nm
Method: The fluorescent spectrum of a spin coat film of the compound 31 on an ITO transparent electroconductive glass was measured. The results correspond to a graph (0 wt %) of FIG. 8. The measurement was made by a fluorophotometer (trade name: RF-5300PC, manufactured by Shimadzu Corporation). The compound 31 emitted blue light having a fluorescent peak wavelength of 422 nm.
First, a fluorescent spectrum obtained when a film formed in a thickness of 41 nm by applying a solution of the compound 32 to the surface of an ITO transparent electroconductive glass by spin coating was excited by 340 nm light was obtained (solid line in FIG. 10). The measurement was made by a fluorophotometer (trade name: RF-5300PC, manufactured by Shimadzu Corporation). Blue light emission having a fluorescent peak wavelength of 424 nm was obtained.
A fluorescent spectrum obtained when a film was formed in the same manner as above by doping the compound 32 with 5 wt % of the compound 2 was measured in the same manner as above. The results are shown by the dotted line in FIG. 10. The fluorescent peak wavelength was 453 nm and pure blue light emission was obtained which was more intensified than the case where the compound 32 was not doped with the compound 2.
Xylene solutions containing only the compound 31, only the compound 33, and a mixture of the compound 31:compound 33:compound 3 (10:2:1 ratio by weight) such that each solid content was 2 wt % were respectively applied to a quarts plate by spin coating (rotated at 500 rpm for 5 sec and then at 1200 rpm for 60 sec) to form films having almost the same thickness, thereby measuring a fluorescent spectrum.

Compound	thermal stability [2]	solubility (concentration dissolved in toluene) ([3]; toluene)	electron affinity [4]	ionization potential [4]	fluorescent peak wavelength [6]	other results
CC(C)(C)c1ccc2c(-c3ccccc3-c3ccccc3)c3ccccc3c(-c3ccccc3-c3ccccc3)c2c1 [TBBPA, 9,10-di(biphenyl-2-yl)-2-t-butylanthracene]						glass transition temperature (Tg) of prior-art material [5]: about 74 °C
CC(C)(C)c1ccc2c(-c3ccc4ccccc4c3)c3ccccc3c(-c3ccc4ccccc4c3)c2c1 [TBDNA, 9,10-di(2-naphthyl)-2-tertiarybutylanthracene]						glass transition temperature (Tg) of prior-art material [5]: about 128 °C
CC(C)(C)c1ccc(-c2nc(-c3ccc(-c4ccccc4-c4c5ccccc5c(-c5ccccc5-c5ccc(-c6nc(-c7ccc(C(C)(C)C)cc7)nc(-c7ccc(C(C)(C)C)cc7)n6)cc5)c5ccccc45)cc3)nc(-c3ccc(C(C)(C)C)cc3)n2)cc1 [compound 1, 9,10-bis{4-[2,4-bis(4-tert-butylphenyl)-1,3,5-triazine-6-yl]biphenyl-2′-yl}anthracene]		1.3 mg in 1 ml	2.9 eV and 3.0 eV	5.9 eV	448 nm	
Cc1ccc2c(-c3ccccc3-c3ccc(-c4nc(-c5ccc(C(C)(C)C)cc5)nc(-c5ccc(C(C)(C)C)cc5)n4)cc3)c3ccccc3c(-c3ccccc3-c3ccc(-c4nc(-c5ccc(C(C)(C)C)cc5)nc(-c5ccc(C(C)(C)C)cc5)n4)cc3)c2c1 [compound 2, 2-methyl-9,10-bis{4-[2,4-bis(4-tert-butylphenyl)-1,3,5-triazine-6-yl]biphenyl-2′-yl}anthracene]					454 nm	Eg [4]: about 2.9 eV

Now from value to molecule, other results behind:

thermal stability [2]	solubility (concentration dissolved in toluene) ([3]; toluene)	electron affinity [4]	ionization potential [4]	fluorescent peak wavelength [6]	Compound	other results
thermally very stable	34 mg in 1 ml	2.9 eV	5.9 eV		Cc1ccc2c(-c3ccccc3-c3ccc(-c4nc(-c5ccc(C(C)(C)C)cc5)nc(-c5ccc(C(C)(C)C)cc5)n4)cc3)c3ccccc3c(-c3ccccc3-c3ccc(-c4nc(-c5ccc(C(C)(C)C)cc5)nc(-c5ccc(C(C)(C)C)cc5)n4)cc3)c2c1 (single isomer, unassigned) [isomer component 1 of the compound 2, 2-methyl-9,10-bis{4-[2,4-bis(4-tert-butylphenyl)-1,3,5-triazine-6-yl]biphenyl-2′-yl}-anthracene]	fluorescent intensity remaining [1]: 57 % of the initial intensity
thermally very stable	150 mg in 1 ml			453 nm	CC(C)(C)c1ccc(-c2nc(-c3ccc(-c4ccccc4-c4c5ccccc5c(-c5ccccc5-c5ccc(-c6nc(-c7ccc(C(C)(C)C)cc7)nc(-c7ccc(C(C)(C)C)cc7)n6)cc5)c5cc(C(C)(C)C)ccc45)cc3)nc(-c3ccc(C(C)(C)C)cc3)n2)cc1 [compound 3, 2-tert-butyl-9,10-bis{4-[2,4-bis(4-tert-butylphenyl)-1,3,5-triazine-6-yl]biphenyl-2′-yl}anthracene]	
thermally stable glass-like material	0.4 g in 1 ml	3.0 eV	6.2 eV	422 nm	CC(C)(C)c1ccc(-c2nc(-c3ccc(-c4ccc5c(c4)C4(c6ccccc6-5)c5ccccc5-c5ccc(-c6ccc(-c7nc(-c8ccc(C(C)(C)C)cc8)nc(-c8ccc(C(C)(C)C)cc8)n7)cc6)cc54)cc3)nc(-c3ccc(C(C)(C)C)cc3)n2)cc1 [compound 31, 2,2′-bis(4-(2,4-bis(4-tert-butylphenyl)-1,3,5-triazine-6-yl)phenyl)-9,9′-spirobifluorene]	fluorescent intensity remaining [1]: 64 % of the initial intensity; solubility in organic solvents ([3]; toluene): easily soluble; Eg [4]: 3.2 eV
	6 mg in 1 ml	3.0 eV	6.2 eV	424 nm	Cc1ccc(-c2nc(-c3ccc(C)cc3)nc(-c3ccc(-c4ccc5c(c4)C4(c6ccccc6-5)c5ccccc5-c5ccc(-c6ccc(-c7nc(-c8ccc(C)cc8)nc(-c8ccc(C)cc8)n7)cc6)cc54)cc3)n2)cc1 [compound 32]	amount dissolved after heating on a hot plate and return to ambient temperature ([3]; 1 ml of toluene, gradually added while heating, returned to ambient temperature): 34 mg
		2.8 eV	6.2 eV		CC(C)(C)c1ccc2c(c1)c1cc(C(C)(C)C)ccc1n2-c1ccc(-c2cc(-c3ccc(-n4c5ccc(C(C)(C)C)cc5c5cc(C(C)(C)C)ccc54)cc3)cc(-c3ccc(-n4c5ccc(C(C)(C)C)cc5c5cc(C(C)(C)C)ccc54)cc3)c2)cc1 [compound 33, 1,3,5-tris(4-(3,6-di-tert-butyl-N-carbazolyl)phenyl)benzene]	glass transition temperature (Tg) ([2]; DSC, temperature rise rate 20° C./min): 240 °C; solubility in organic solvents ([3]; toluene): easily soluble; amount dissolved in general organic solvent ([3]; toluene, xylene, tetralin or mixture solvent): ≥ 10 wt %; fluorescent peak ([6]; spin coat film from xylene solution on quartz plate): 380 nm
